Numbers after ± are expanded uncertainties.
Experiment: molar heat capacity at saturation pressure; xn = mol fraction of the nth substance listed

CCCCn1cc[n+](C)c1.Cc1ccc(S(=O)(=O)[O-])cc1 [1-butyl-3-methylimidazolium tosylate] + O
Conditions | molar heat capacity [J/K/mol]
187.71 K, Metastable crystal, x1 = 0.83 | 257.58 ± 2.6
188.37 K, Crystal, x1 = 0.37 | 129.48 ± 1.5
189.01 K, Crystal, x1 = 0.3 | 108.8 ± 1.3
189.44 K, Crystal, x1 = 0.83 | 237.24 ± 2.3
189.61 K, Metastable crystal, x1 = 0.83 | 259.14 ± 2.6
191.25 K, Crystal, x1 = 0.37 | 131.12 ± 1.5
191.41 K, Crystal, x1 = 0.83 | 240.11 ± 2.3
191.51 K, Metastable crystal, x1 = 0.83 | 260.97 ± 2.6
191.66 K, Crystal, x1 = 0.3 | 109.86 ± 1.4
193.36 K, Crystal, x1 = 0.83 | 244.28 ± 2.3
193.41 K, Metastable crystal, x1 = 0.83 | 262.79 ± 2.6
194.12 K, Crystal, x1 = 0.37 | 132.64 ± 1.5
194.31 K, Crystal, x1 = 0.3 | 111.02 ± 1.4
195.3 K, Crystal, x1 = 0.83 | 250.02 ± 2.3
195.31 K, Metastable crystal, x1 = 0.83 | 264.88 ± 2.6
196.95 K, Crystal, x1 = 0.3 | 112.29 ± 1.4
196.98 K, Crystal, x1 = 0.37 | 134.15 ± 1.5
197.21 K, Metastable crystal, x1 = 0.83 | 268.01 ± 2.6
197.23 K, Crystal, x1 = 0.83 | 254.97 ± 2.6
199.09 K, Metastable crystal, x1 = 0.83 | 272.44 ± 2.6
199.14 K, Crystal, x1 = 0.83 | 258.88 ± 2.6
199.58 K, Crystal, x1 = 0.3 | 113.66 ± 1.4
199.84 K, Crystal, x1 = 0.37 | 135.92 ± 1.5
201 K, Metastable crystal, x1 = 0.83 | 280.52 ± 2.6
201.17 K, Crystal, x1 = 0.83 | 262.53 ± 2.6
201.54 K, Crystal, x1 = 0.3 | 114.83 ± 1.4
201.97 K, Crystal, x1 = 0.37 | 137.43 ± 1.5
202.83 K, Crystal, x1 = 0.3 | 115.46 ± 1.4
202.96 K, Metastable crystal, x1 = 0.83 | 287.56 ± 2.9
203.32 K, Crystal, x1 = 0.83 | 264.88 ± 2.6
203.36 K, Crystal, x1 = 0.37 | 138.57 ± 1.5
204.12 K, Crystal, x1 = 0.3 | 115.99 ± 1.4
204.75 K, Crystal, x1 = 0.37 | 139.08 ± 1.5
204.92 K, Metastable crystal, x1 = 0.83 | 289.38 ± 2.9
205.4 K, Crystal, x1 = 0.3 | 116.63 ± 1.4
205.47 K, Crystal, x1 = 0.83 | 266.7 ± 2.6
206.15 K, Crystal, x1 = 0.37 | 140.46 ± 1.5
206.69 K, Crystal, x1 = 0.3 | 117.05 ± 1.4
206.89 K, Metastable crystal, x1 = 0.83 | 290.69 ± 2.9
207.55 K, Crystal, x1 = 0.37 | 141.22 ± 1.6
207.62 K, Crystal, x1 = 0.83 | 268.53 ± 2.6
207.98 K, Crystal, x1 = 0.3 | 117.58 ± 1.4
208.85 K, Metastable crystal, x1 = 0.83 | 291.99 ± 2.9
208.96 K, Crystal, x1 = 0.37 | 142.1 ± 1.6
209.26 K, Crystal, x1 = 0.3 | 118 ± 1.4
209.77 K, Crystal, x1 = 0.83 | 270.61 ± 2.6
210.37 K, Crystal, x1 = 0.37 | 142.86 ± 1.6
210.55 K, Crystal, x1 = 0.3 | 118.74 ± 1.4
210.81 K, Metastable crystal, x1 = 0.83 | 293.03 ± 2.9
211.79 K, Crystal, x1 = 0.37 | 143.62 ± 1.6
211.84 K, Crystal, x1 = 0.3 | 119.27 ± 1.4
211.92 K, Crystal, x1 = 0.83 | 272.7 ± 2.6
212.77 K, Metastable crystal, x1 = 0.83 | 294.34 ± 2.9
213.13 K, Crystal, x1 = 0.3 | 120.22 ± 1.4
213.22 K, Crystal, x1 = 0.37 | 144.25 ± 1.6
214.07 K, Crystal, x1 = 0.83 | 274.78 ± 2.6
214.41 K, Crystal, x1 = 0.3 | 121.91 ± 1.4
214.66 K, Crystal, x1 = 0.37 | 145.26 ± 1.6
214.74 K, Metastable crystal, x1 = 0.83 | 295.64 ± 2.9
215.69 K, Crystal, x1 = 0.3 | 123.6 ± 1.5
216.09 K, Crystal, x1 = 0.37 | 146.27 ± 1.6
216.21 K, Crystal, x1 = 0.83 | 276.87 ± 2.6
216.7 K, Metastable crystal, x1 = 0.83 | 296.68 ± 2.9
216.97 K, Crystal, x1 = 0.3 | 125.51 ± 1.5
217.52 K, Crystal, x1 = 0.37 | 148.16 ± 1.6
218.24 K, Crystal, x1 = 0.3 | 127.73 ± 1.5
218.36 K, Crystal, x1 = 0.83 | 278.69 ± 2.6
218.66 K, Metastable crystal, x1 = 0.83 | 297.99 ± 2.9
218.93 K, Crystal, x1 = 0.37 | 150.81 ± 1.6
219.5 K, Crystal, x1 = 0.3 | 130.37 ± 1.5
220.33 K, Crystal, x1 = 0.37 | 154.98 ± 1.6
220.5 K, Crystal, x1 = 0.83 | 280.78 ± 2.6
220.62 K, Metastable crystal, x1 = 0.83 | 299.29 ± 2.9
220.76 K, Crystal, x1 = 0.3 | 133.97 ± 1.5
221.7 K, Crystal, x1 = 0.37 | 161.54 ± 1.8
222 K, Crystal, x1 = 0.3 | 138.72 ± 1.6
222.58 K, Metastable crystal, x1 = 0.83 | 300.59 ± 2.9
222.65 K, Crystal, x1 = 0.83 | 282.87 ± 2.6
223.04 K, Crystal, x1 = 0.37 | 170.5 ± 1.8
223.23 K, Crystal, x1 = 0.3 | 144.64 ± 1.6
224.35 K, Crystal, x1 = 0.37 | 182.11 ± 1.9
224.44 K, Crystal, x1 = 0.3 | 151.62 ± 1.7
224.54 K, Metastable crystal, x1 = 0.83 | 301.9 ± 2.9
224.8 K, Crystal, x1 = 0.83 | 284.95 ± 2.9
225.63 K, Crystal, x1 = 0.3 | 159.55 ± 1.7
225.63 K, Crystal, x1 = 0.37 | 195.24 ± 2
226.5 K, Metastable crystal, x1 = 0.83 | 303.2 ± 2.9
226.79 K, Crystal, x1 = 0.3 | 169.18 ± 1.8
226.88 K, Crystal, x1 = 0.37 | 210.13 ± 2.1
226.96 K, Crystal, x1 = 0.83 | 286.78 ± 2.9
227.92 K, Crystal, x1 = 0.3 | 180.91 ± 1.9
228.08 K, Crystal, x1 = 0.37 | 225.52 ± 2.3
228.46 K, Metastable crystal, x1 = 0.83 | 304.76 ± 2.9
229.02 K, Crystal, x1 = 0.3 | 196.03 ± 2
229.14 K, Crystal, x1 = 0.83 | 288.6 ± 2.9
229.24 K, Crystal, x1 = 0.37 | 246.35 ± 2.4
230.06 K, Crystal, x1 = 0.3 | 216.44 ± 2.2
230.36 K, Crystal, x1 = 0.37 | 271.97 ± 2.7
230.42 K, Metastable crystal, x1 = 0.83 | 306.33 ± 2.9
231.05 K, Crystal, x1 = 0.3 | 243.4 ± 2.4
231.35 K, Crystal, x1 = 0.83 | 290.43 ± 2.9
231.41 K, Crystal, x1 = 0.37 | 306.67 ± 3
231.97 K, Crystal, x1 = 0.3 | 279.14 ± 2.9
232.38 K, Metastable crystal, x1 = 0.83 | 307.89 ± 2.9
232.4 K, Crystal, x1 = 0.37 | 350.72 ± 3.4
232.82 K, Crystal, x1 = 0.3 | 325.66 ± 3.3
233.32 K, Crystal, x1 = 0.37 | 386.68 ± 3.5
233.59 K, Crystal, x1 = 0.3 | 384.24 ± 3.9
233.59 K, Crystal, x1 = 0.83 | 291.21 ± 2.9
234.25 K, Crystal, x1 = 0.37 | 311.22 ± 3.5
234.29 K, Crystal, x1 = 0.3 | 455.08 ± 4.7
234.34 K, Metastable crystal, x1 = 0.83 | 309.46 ± 2.9
234.92 K, Crystal, x1 = 0.3 | 526.56 ± 4.9
235.39 K, Crystal, x1 = 0.37 | 181.61 ± 2.1
235.5 K, Crystal, x1 = 0.3 | 534.91 ± 5.8
235.86 K, Crystal, x1 = 0.83 | 290.16 ± 2.9
236.15 K, Crystal, x1 = 0.3 | 325.13 ± 5.4
236.31 K, Metastable crystal, x1 = 0.83 | 310.24 ± 2.9
236.7 K, Crystal, x1 = 0.37 | 181.73 ± 1.9
237.09 K, Crystal, x1 = 0.3 | 171.82 ± 2.3
238 K, Crystal, x1 = 0.37 | 183.25 ± 1.9
238.22 K, Crystal, x1 = 0.83 | 290.95 ± 2.9
238.25 K, Crystal, x1 = 0.3 | 170.34 ± 1.8
238.27 K, Metastable crystal, x1 = 0.83 | 311.54 ± 2.9
239.3 K, Crystal, x1 = 0.37 | 184.76 ± 1.9
239.4 K, Crystal, x1 = 0.3 | 171.4 ± 1.8
240.23 K, Metastable crystal, x1 = 0.83 | 313.11 ± 2.9
240.46 K, Crystal, x1 = 0.83 | 293.81 ± 2.9
240.56 K, Crystal, x1 = 0.3 | 172.98 ± 1.8
240.6 K, Crystal, x1 = 0.37 | 186.27 ± 1.9
241.71 K, Crystal, x1 = 0.3 | 174.78 ± 1.8
241.9 K, Crystal, x1 = 0.37 | 188.17 ± 2
242.19 K, Metastable crystal, x1 = 0.83 | 315.19 ± 2.9
242.68 K, Crystal, x1 = 0.83 | 297.2 ± 2.9
242.86 K, Crystal, x1 = 0.3 | 176.47 ± 1.9
243.19 K, Crystal, x1 = 0.37 | 189.93 ± 2
244.01 K, Crystal, x1 = 0.3 | 178.27 ± 1.9
244.14 K, Metastable crystal, x1 = 0.83 | 317.28 ± 2.9
244.48 K, Crystal, x1 = 0.37 | 191.7 ± 2
244.87 K, Crystal, x1 = 0.83 | 300.59 ± 2.9
245.15 K, Crystal, x1 = 0.3 | 179.96 ± 1.9
245.76 K, Crystal, x1 = 0.37 | 193.72 ± 2
246.08 K, Metastable crystal, x1 = 0.83 | 319.62 ± 3.1

Source: the NIST ThermoML archive (doi:10.1021/je700152c)
